Values of other authors, collected in patent publication US20180071214A1, “Pharmaceutical Oral Dose Formulation and Composition of Matter” (priority 2016, published 2018).

What was measured:
[1] = p-glycoprotein substrate

CC[C@]1(O)C[C@@H]2CN(CCc3c([nH]c4ccccc34)[C@@](C(=O)OC)(c3cc4c(cc3OC)N(C)[C@H]3[C@@](O)(C(=O)OC)[C@H](OC(C)=O)[C@]5(CC)C=CCN6CC[C@]43[C@@H]65)C2)C1 [vinblastinee]
intestinal absorption [1]: negligible intestinal absorption
tissue effect after intravenous injection: severe tissue irritation and even damage
